{
  "source": "paper PMC7215089",
  "about": "“Identification of a Conserved Prophenoloxidase Activation Pathway in Cotton Bollworm Helicoverpa armigera” (Frontiers in Immunology, 2020)",
  "target": "T1, PPO / PO (PPO1-PPO2 heterodimer) (Helicoverpa armigera, UniProt A0A290U614+Q2VIY6)",
  "T1 sequence (A0A290U614 1-684)": "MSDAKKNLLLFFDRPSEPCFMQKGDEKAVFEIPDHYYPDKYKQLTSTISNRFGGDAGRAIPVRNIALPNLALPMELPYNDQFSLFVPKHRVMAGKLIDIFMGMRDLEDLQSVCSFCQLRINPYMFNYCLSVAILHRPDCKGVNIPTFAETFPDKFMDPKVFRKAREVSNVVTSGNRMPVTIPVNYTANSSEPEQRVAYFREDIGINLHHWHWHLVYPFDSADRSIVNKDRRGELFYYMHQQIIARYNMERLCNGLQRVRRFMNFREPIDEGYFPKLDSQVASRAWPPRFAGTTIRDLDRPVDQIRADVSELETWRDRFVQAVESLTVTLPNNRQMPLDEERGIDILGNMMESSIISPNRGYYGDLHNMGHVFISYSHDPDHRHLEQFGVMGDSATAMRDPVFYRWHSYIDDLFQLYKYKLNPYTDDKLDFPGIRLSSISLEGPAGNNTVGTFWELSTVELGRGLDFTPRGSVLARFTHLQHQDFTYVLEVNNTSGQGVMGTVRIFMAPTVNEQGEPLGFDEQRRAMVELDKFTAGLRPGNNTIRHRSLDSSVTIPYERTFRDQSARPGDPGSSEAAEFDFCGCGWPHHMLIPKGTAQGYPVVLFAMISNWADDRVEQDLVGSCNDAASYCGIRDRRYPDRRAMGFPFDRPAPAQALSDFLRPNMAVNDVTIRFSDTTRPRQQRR",
  "T1 sequence (Q2VIY6 1-698)": "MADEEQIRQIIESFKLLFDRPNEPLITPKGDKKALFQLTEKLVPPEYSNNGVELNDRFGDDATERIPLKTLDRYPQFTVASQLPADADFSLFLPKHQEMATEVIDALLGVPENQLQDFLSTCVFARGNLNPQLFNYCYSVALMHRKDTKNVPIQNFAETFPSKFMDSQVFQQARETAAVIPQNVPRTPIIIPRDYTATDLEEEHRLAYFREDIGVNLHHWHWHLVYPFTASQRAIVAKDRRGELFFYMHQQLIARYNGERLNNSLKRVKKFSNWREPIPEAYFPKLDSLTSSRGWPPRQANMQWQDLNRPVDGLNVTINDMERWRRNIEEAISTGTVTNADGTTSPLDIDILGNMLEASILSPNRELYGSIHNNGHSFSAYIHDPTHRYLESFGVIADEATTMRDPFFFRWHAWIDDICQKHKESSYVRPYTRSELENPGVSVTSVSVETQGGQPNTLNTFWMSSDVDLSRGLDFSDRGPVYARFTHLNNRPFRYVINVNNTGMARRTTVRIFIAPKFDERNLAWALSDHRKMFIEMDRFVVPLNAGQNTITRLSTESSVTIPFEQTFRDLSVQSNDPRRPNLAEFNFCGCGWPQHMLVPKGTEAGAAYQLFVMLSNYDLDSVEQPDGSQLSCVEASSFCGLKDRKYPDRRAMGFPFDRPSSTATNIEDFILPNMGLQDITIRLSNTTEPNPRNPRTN",
  "test": "phenoloxidase assay, dopamine chrome formation",
  "assay_type": "biochemical",
  "settings": "PPO activated by CPC",
  "data": [
    {"smiles": "NCCc1ccc(O)c(O)c1", "note": "[dopamine]", "values": [
      {"measurement": "phenoloxidase assay, dopamine chrome formation", "value": "production of dopamine chrome (or dopachrome) from dopamine (or dopa)"}
    ]}
  ]
}
